This is an account of results in PubChem BioAssay (NCI).

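A five-concentration, 48-hour dose response in 96-well plates underlies each endpoint, interpolated linearly between surrounding concentrations. Here, GI50 denotes the concentration required for 50% inhibition of growth. TGI is the concentration that stops growth completely.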 Where only a bound is given, the exact number is not on record here.

Some test systems named below: A549 NSCLC; EKVX NSCLC; HCT-116 colon; IGROV1 ovarian; MDA-MB-435; MDA-N; NCI-H522 lung; NCI/ADR-RES ovarian; SNB-19 CNS; SW-620 colon; U251 CNS; UACC-62 melanoma; MALME-3M melanoma; HS 578T breast.
What all share (assay): growth of human tumour cells (NCI), 48 h

In the case of `CN1N=C(c2ccccc2)c2cc(Cl)ccc2N=C1N/N=C/c1ccc(N(C)C)cc1`, the TGI in the assay with A549 NSCLC, in the assay on EKVX NSCLC, in the assay on HCT-116 colon, in the assay on IGROV1 ovarian, with MDA-MB-435 and with MDA-N was above 100 µM in each case. For the same molecule, the TGI in the assay with NCI-H522 lung, with NCI/ADR-RES ovarian, in the assay with SNB-19 CNS, in the assay with SW-620 colon, in the assay on U251 CNS and in the assay on UACC-62 melanoma was above 100 µM in each case.

For `CCOC(=O)c1ccn2c(c1)c(C#N)c1nc3ccccc3nc12`, the TGI in the assay with A549 NSCLC is above 100 µM; in the assay on EKVX NSCLC, above 100 µM; with HCT-116 colon, above 100 µM; with IGROV1 ovarian, 59.8 µM; with MALME-3M melanoma it was above 100 µM; in the assay with NCI-H522 lung it was above 100 µM. Also, the TGI is above 100 µM in the assay with SNB-19 CNS, above 100 µM in the assay on SW-620 colon, above 100 µM in the assay on U251 CNS and 25.7 µM in the assay on UACC-62 melanoma.

In the case of `CC(=O)OCC1=CC2CCC3C(C)(CCC[C@]3(C)COC(C)=O)C23CC[C@H]1C3` (stereo not given in full), the TGI was above 100 µM with A549 NSCLC; above 100 µM with EKVX NSCLC; above 100 µM in the assay on HCT-116 colon; above 100 µM with IGROV1 ovarian; above 100 µM with MALME-3M melanoma; 45.4 µM with NCI-H522 lung. Besides, the TGI in the assay with SNB-19 CNS, in the assay on SW-620 colon, in the assay on U251 CNS and in the assay on UACC-62 melanoma was above 100 µM in each case.

Regarding `COc1cc2c(cc1OC)[C@H]1C(COC(=O)Nc3ccccc3)CN1CC2` (stereo not given in full), the TGI in the assay with A549 NSCLC, in the assay with HCT-116 colon, in the assay with IGROV1 ovarian, in the assay on MALME-3M melanoma, in the assay with NCI-H522 lung and in the assay with SNB-19 CNS was above 100 µM throughout. Further, the TGI in the assay with SW-620 colon, in the assay on U251 CNS and in the assay with UACC-62 melanoma was above 100 µM throughout.

As to `Clc1ccc(N2N=C(c3cccc(Nc4ccncc4)c3)CC2c2ccc(Br)cc2)cc1` (stereo not given), the GI50 with IGROV1 ovarian is 1.8 µM; with MDA-MB-435, 1.65 µM; in the assay with SW-620 colon, 1.73 µM; with UACC-62 melanoma, 1.77 µM. Further, the TGI in the assay on IGROV1 ovarian came out at 3.41 µM; with MDA-MB-435, 3.08 µM; in the assay on SW-620 colon it was 3.51 µM; in the assay with UACC-62 melanoma, 3.25 µM.

As to `O=C(NCc1ccccc1)C1C(=O)C(=O)N(Cc2ccccc2)C1=O` (stereo not given), the TGI with A549 NSCLC, with EKVX NSCLC, in the assay on HCT-116 colon, in the assay with IGROV1 ovarian, with MALME-3M melanoma and with NCI-H522 lung was above 100 µM throughout. In addition, the TGI in the assay with SNB-19 CNS, with SW-620 colon, in the assay with U251 CNS and in the assay with UACC-62 melanoma was above 100 µM each time.

Consider `O=C1c2c(O)cccc2Cc2cc(CO)cc(O)c21`, for which the TGI was 9.08 µM in the assay with A549 NSCLC; 9.62 µM in the assay with EKVX NSCLC; 16.7 µM in the assay on HCT-116 colon; 20.1 µM with IGROV1 ovarian; 5.37 µM in the assay with MALME-3M melanoma; 15.5 µM in the assay on MDA-MB-435. The TGI was 11.5 µM in the assay on MDA-N; 15.1 µM in the assay with NCI/ADR-RES ovarian; 36.6 µM in the assay with SNB-19 CNS; above 100 µM in the assay with SW-620 colon; 10.7 µM with U251 CNS.

For `COc1cc2cnc3c4cc(OC)c(OC(C)C)cc4ccc3c2cc1OC`, the TGI in the assay with A549 NSCLC, in the assay on EKVX NSCLC, in the assay on HCT-116 colon, in the assay on IGROV1 ovarian, in the assay with MALME-3M melanoma and in the assay on NCI-H522 lung was above 100 µM each time. Also, the TGI with SNB-19 CNS, in the assay with SW-620 colon, in the assay on U251 CNS and in the assay on UACC-62 melanoma was above 100 µM throughout.

Regarding `COC(=O)/C(=N\N)C(C(=O)C(=O)Nc1nc(=S)[nH][nH]1)c1nc2ccc([N+](=O)[O-])cc2[nH]c1=O` (stereo not given), the TGI in the assay on A549 NSCLC, in the assay with EKVX NSCLC, with HCT-116 colon, in the assay with IGROV1 ovarian, in the assay with MALME-3M melanoma and in the assay with NCI-H522 lung was above 100 µM in each case. In addition, the TGI in the assay on SNB-19 CNS, with SW-620 colon, in the assay on U251 CNS and in the assay with UACC-62 melanoma was above 100 µM in each case.

As to `CCC(=O)CCC1=Nc2nnc(CCCCc3nnc4n3C(=O)C(CCC(=O)CC)=N4)n2C1=O`, the TGI with A549 NSCLC, in the assay on EKVX NSCLC, in the assay with IGROV1 ovarian, in the assay on MALME-3M melanoma, with NCI-H522 lung and in the assay with SNB-19 CNS was above 100 µM each time. Further, the TGI with SW-620 colon and in the assay on UACC-62 melanoma was above 100 µM throughout.

In the case of `C[Si](C)(C)/C=C/CN1C(=O)CCC1=O`, the TGI with A549 NSCLC, in the assay on EKVX NSCLC, in the assay on HCT-116 colon, in the assay on IGROV1 ovarian, in the assay on MALME-3M melanoma and in the assay with NCI-H522 lung was above 100 µM in each case. Also, the TGI in the assay on SNB-19 CNS, in the assay on SW-620 colon, in the assay with U251 CNS and with UACC-62 melanoma was above 100 µM throughout.

Consider `CCCC(C(=O)Nc1cccc2[nH]cnc12)C(=O)OCC` (stereo not given), for which the TGI in the assay on A549 NSCLC, in the assay with EKVX NSCLC, with HCT-116 colon, with HS 578T breast, with IGROV1 ovarian and with MDA-MB-435 was above 100 µM in each case. Besides, the TGI in the assay with NCI-H522 lung, in the assay with NCI/ADR-RES ovarian, with SNB-19 CNS, in the assay with SW-620 colon, with U251 CNS and in the assay with UACC-62 melanoma was above 100 µM in each case.

As for `CCc1cccc(NC(=O)c2cc(/C=C/c3ccccc3)[nH]c(=S)n2)c1`, the TGI in the assay on A549 NSCLC, with EKVX NSCLC, in the assay with HCT-116 colon, in the assay on IGROV1 ovarian, with MALME-3M melanoma and in the assay on NCI-H522 lung was above 100 µM in each case. The TGI in the assay on SNB-19 CNS, with SW-620 colon, with U251 CNS and with UACC-62 melanoma was above 100 µM throughout.
